Data on 28 compounds can be found in patent publication US20220073525A1, “COMPOSITIONS FOR INHIBITING UBIQUITIN SPECIFIC PROTEASE 1” (FORMA Therapeutics, Inc., priority 2019, published 2022).

The target of one assay is USP1 (Homo sapiens, UniProt O94782). Kind of assay: Biochemical Assay for USP1 Inhibition (Ub-Rho 110 fluorescence). To be noted: Table 5; 30 min preincubation, Enzyme 0.025 nM, Substrate Ub-Rho 110 25 nM; read-out: IC50 (μm). The method in brief: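 USP1 at 0.025 nM, preincubated 30 min with compound (25 μM to 1.3 nM, 10-point), then Ub-Rho 110 at 25 nM (<<Km) in Tris-HCl pH 8.0, 1 mM GSH, 0.03% BGG, 0.01% Triton X-100. Fluorescence read kinetically over 11 min; % inhibition versus no-enzyme and DMSO controls, IC50 from 4-parameter logistic fit.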
Chain of USP1 (O94782 whole entry): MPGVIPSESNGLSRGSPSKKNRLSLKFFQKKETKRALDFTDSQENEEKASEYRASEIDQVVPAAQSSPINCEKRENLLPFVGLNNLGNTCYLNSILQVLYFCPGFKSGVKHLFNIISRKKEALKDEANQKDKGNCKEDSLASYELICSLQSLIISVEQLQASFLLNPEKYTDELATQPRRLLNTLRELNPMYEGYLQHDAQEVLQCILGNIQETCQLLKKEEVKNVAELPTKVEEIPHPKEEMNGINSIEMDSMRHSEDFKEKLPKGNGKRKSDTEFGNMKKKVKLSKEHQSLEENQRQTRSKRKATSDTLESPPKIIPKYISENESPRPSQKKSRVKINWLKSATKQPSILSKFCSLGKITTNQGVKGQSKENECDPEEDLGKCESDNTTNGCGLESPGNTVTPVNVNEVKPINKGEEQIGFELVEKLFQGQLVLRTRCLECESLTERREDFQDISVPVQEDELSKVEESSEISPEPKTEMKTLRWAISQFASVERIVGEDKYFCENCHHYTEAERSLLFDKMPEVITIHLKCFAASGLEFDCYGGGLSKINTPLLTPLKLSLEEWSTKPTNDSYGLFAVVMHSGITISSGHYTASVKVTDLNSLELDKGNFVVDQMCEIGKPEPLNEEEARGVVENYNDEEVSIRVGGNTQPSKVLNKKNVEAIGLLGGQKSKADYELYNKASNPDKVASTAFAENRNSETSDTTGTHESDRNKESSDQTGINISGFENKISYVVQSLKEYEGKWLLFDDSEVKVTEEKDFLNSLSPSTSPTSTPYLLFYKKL
Chain of USP1 (Q8TAF3 whole entry partner): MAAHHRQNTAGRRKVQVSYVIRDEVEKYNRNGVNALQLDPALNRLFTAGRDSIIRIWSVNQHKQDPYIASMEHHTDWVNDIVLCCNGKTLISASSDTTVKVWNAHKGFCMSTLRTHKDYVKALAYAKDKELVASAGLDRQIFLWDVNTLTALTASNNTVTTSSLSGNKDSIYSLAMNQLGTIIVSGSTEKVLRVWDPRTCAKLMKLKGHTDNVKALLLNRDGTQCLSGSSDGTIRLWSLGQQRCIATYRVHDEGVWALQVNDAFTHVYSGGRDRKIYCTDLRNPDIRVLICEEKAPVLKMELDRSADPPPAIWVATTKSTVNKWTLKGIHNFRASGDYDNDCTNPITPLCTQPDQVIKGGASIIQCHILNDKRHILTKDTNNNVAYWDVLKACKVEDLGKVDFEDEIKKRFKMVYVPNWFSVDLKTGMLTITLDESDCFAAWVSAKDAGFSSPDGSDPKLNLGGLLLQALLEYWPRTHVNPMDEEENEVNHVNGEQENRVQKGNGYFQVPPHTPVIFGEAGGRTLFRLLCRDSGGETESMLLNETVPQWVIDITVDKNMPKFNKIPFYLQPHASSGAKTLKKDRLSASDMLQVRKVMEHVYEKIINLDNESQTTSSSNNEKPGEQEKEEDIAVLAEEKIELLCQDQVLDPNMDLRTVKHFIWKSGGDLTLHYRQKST
For `Cc1nc(-c2cccnc2C(C)C)c2n1CCN(c1cccc(C(=O)N3CCC[C@@H]3C)c1)C2` [Compound 62, 3-(3-methyl-7-{3-[(2S)-2-methylpyrrolidine-1-carbonyl]phenyl}-5H,6H,7H,8H-imidazo[1,5-a]pyrazin-1-yl)-2-(propan-2-yl)pyridine], the IC50 – broadly, the concentration that gives 50% inhibition – is more than 25000 nM.

For `COCCn1cc(C(F)(F)F)nc1-c1ccc(N2CCn3c(C)nc(-c4cccnc4C(C)C)c3C2)cc1` [Compound 63, 3-(7-{4-[1-(2-methoxyethyl)-4-(trifluoromethyl)-1H-imidazol-2-yl]phenyl}-3-methyl-5H,6H,7H,8H-imidazo[1,5-a]pyrazin-1-yl)-2-(propan-2-yl)pyridine], the IC50 is not above 1000 nM.

With `Cc1nc(-c2cccnc2C(C)C)c2n1CCN(c1ccc(-c3nc(CO)co3)cc1)C2` [Compound 64, [2-(4-{3-methyl-1-[2-(propan-2-yl)pyridin-3-yl]-5H,6H,7H,8H-imidazo[1,5-a]pyrazin-7-yl}phenyl)-1,3-oxazol-4-yl]methanol], the IC50 fell in the range of 10000 to 25000 nM.

For `Cc1cnc(-c2ccc(N3CCn4c(C)nc(-c5cccnc5C(C)C)c4C3)cc2)o1` [Compound 65, 3-{3-methyl-7-[4-(5-methyl-1,3-oxazol-2-yl)phenyl]-5H,6H,7H,8H-imidazo[1,5-a]pyrazin-1-yl}-2-(propan-2-yl)pyridine], the IC50 was not above 1000 nM.

With `Cc1nc(-c2cccnc2C(C)C)c2n1CCN(c1ccc(-c3ncn(C)n3)cc1)C2` [Compound 66, 3-{3-methyl-7-[4-(1-methyl-1H-1,2,4-triazol-3-yl)phenyl]-5H,6H,7H,8H-imidazo[1,5-a]pyrazin-1-yl}-2-(propan-2-yl)pyridine], the IC50 lay in the range of 10000 to 25000 nM.

In the case of `Cc1nc(-c2cccnc2C(C)C)c2n1CCN(c1ccc(-n3nccn3)cc1)C2` [Compound 67, 3-{3-methyl-7-[4-(2H-1,2,3-triazol-2-yl)phenyl]-5H,6H,7H,8H-imidazo[1,5-a]pyrazin-1-yl}-2-(propan-2-yl)pyridine], the half-inhibitory concentration (IC50) was in the range of 1000 to 10000 nM.

In the case of `Cc1nc(-c2cccnc2C(C)C)c2n1CCN(c1ccc(-c3nc(Cl)cn3C)cc1)C2` [Compound 68, 3-{7-[4-(4-chloro-1-methyl-1H-imidazol-2-yl)phenyl]-3-methyl-5H,6H,7H,8H-imidazo[1,5-a]pyrazin-1-yl}-2-(propan-2-yl)pyridine], the IC50 is not above 1000 nM.

On to `Cc1nc(-c2cccnc2C(C)C)c2n1CCN(c1ccc(-c3cnn(CC(C)C)c3)cc1)C2` [Compound 69, 3-(3-methyl-7-{4-[1-(2-methylpropyl)-1H-pyrazol-4-yl]phenyl}-5H,6H,7H,8H-imidazo[1,5-a]pyrazin-1-yl)-2-(propan-2-yl)pyridine], for which the IC50 fell in the range of 1000 to 10000 nM.

On to `COCCn1cc(-c2ccc(N3CCn4c(C)nc(-c5cccnc5C(C)C)c4C3)cc2)cn1` [Compound 70, 3-(7-{4-[1-(2-methoxyethyl)-1H-pyrazol-4-yl]phenyl}-3-methyl-5H,6H,7H,8H-imidazo[1,5-a]pyrazin-1-yl)-2-(propan-2-yl)pyridine], for which the IC50 lay in the range of 10000 to 25000 nM.

As to `Cc1nc(-c2cccnc2C(C)C)c2n1CCN(c1ccc(-c3cnn(C4COC4)c3)cc1)C2` [Compound 71, 3-(3-methyl-7-{4-[1-(oxetan-3-yl)-1H-pyrazol-4-yl]phenyl}-5H,6H,7H,8H-imidazo[1,5-a]pyrazin-1-yl)-2-(propan-2-yl)pyridine], the IC50 is more than 25000 nM.

In the case of `Cc1nc(-c2cccnc2C(C)C)c2n1CCN(c1ccc(-c3nc(C(F)(F)F)cn3C3CN(C)C3)cc1)C2` [Compound 73, 3-(3-methyl-7-{4-[1-(1-methylazetidin-3-yl)-4-(trifluoromethyl)-1H-imidazol-2-yl]phenyl}-5H,6H,7H,8H-imidazo[1,5-a]pyrazin-1-yl)-2-(propan-2-yl)pyridine], the 50% inhibitory concentration (IC50) was not above 1000 nM.

Regarding `Cc1nc(-c2cccnc2C(C)C)c2n1CCN(c1ccc(-c3cnn(C4CCOCC4)c3)cc1)C2` [Compound 74, 3-(3-methyl-7-{4-[1-(oxan-4-yl)-1H-pyrazol-4-yl]phenyl}-5H,6H,7H,8H-imidazo[1,5-a]pyrazin-1-yl)-2-(propan-2-yl)pyridine], the IC50 lay within 10000 to 25000 nM.

For the compound `Cc1nc(-c2cccnc2C(C)C)c2n1CCN(c1ccc(-c3nc(C(F)(F)F)cn3C)nc1)C2` [Compound 75, 5-{3-methyl-1-[2-(propan-2-yl)pyridin-3-yl]-5H,6H,7H,8H-imidazo[1,5-a]pyrazin-7-yl}-2-[1-methyl-4-(trifluoromethyl)-1H-imidazol-2-yl]pyridine], the IC50 was not above 1000 nM.

With `Cc1nc(-c2cccnc2C(C)C)c2n1CCN(c1ccc(-c3nc(C(F)(F)F)cn3C3CC3)cc1)C2` [Compound 76, 3-(7-{4-[1-cyclopropyl-4-(trifluoromethyl)-1H-imidazol-2-yl]phenyl}-3-methyl-5H,6H,7H,8H-imidazo[1,5-a]pyrazin-1-yl)-2-(propan-2-yl)pyridine], the IC50 is not above 1000 nM.

Regarding `Cc1cn(C)c(-c2ccc(N3CCn4c(C)nc(-c5cccnc5C(C)C)c4C3)cc2)n1` [Compound 77, 3-{7-[4-(1,4-dimethyl-1H-imidazol-2-yl)phenyl]-3-methyl-5H,6H,7H,8H-imidazo[1,5-a]pyrazin-1-yl}-2-(propan-2-yl)pyridine], the concentration for half-maximal inhibition (IC50) was not above 1000 nM.

Regarding `Cc1nc(-c2cccnc2OC(F)F)c2n1CCN(c1ccc(-n3ccc(C(F)(F)F)n3)cc1)C2` [Compound 78, 2-(difluoromethoxy)-3-(3-methyl-7-{4-[3-(trifluoromethyl)-1H-pyrazol-1-yl]phenyl}-5H,6H,7H,8H-imidazo[1,5-a]pyrazin-1-yl)pyridine], the IC50 was not above 1000 nM.

In the case of `Cc1nc(-c2cccnc2C(C)C)c2n1CCN(c1cnc(-c3nc(C(F)(F)F)cn3C)cn1)C2` [Compound 79, 2-{3-methyl-1-[2-(propan-2-yl)pyridin-3-yl]-5H,6H,7H,8H-imidazo[1,5-a]pyrazin-7-yl}-5-[1-methyl-4-(trifluoromethyl)-1H-imidazol-2-yl]pyrazine], the IC50 was not above 1000 nM.

Regarding `Cc1nc(-c2cccnc2C(C)C)c2n1CCN(c1ccc(-c3nc(C4CC4)cn3C)cc1)C2` [Compound 80, 3-{7-[4-(4-cyclopropyl-1-methyl-1H-imidazol-2-yl)phenyl]-3-methyl-5H,6H,7H,8H-imidazo[1,5-a]pyrazin-1-yl}-2-(propan-2-yl)pyridine], the IC50 was not above 1000 nM.

On to `Cc1cc(Cl)nn1-c1ccc(N2CCn3c(C)nc(-c4cccnc4OC(F)F)c3C2)cc1` [Compound 81, 3-{7-[4-(3-chloro-5-methyl-1H-pyrazol-1-yl)phenyl]-3-methyl-5H,6H,7H,8H-imidazo[1,5-a]pyrazin-1-yl}-2-(difluoromethoxy)pyridine], for which the IC50 was not above 1000 nM.

Consider `Cc1cc(Cl)n(-c2ccc(N3CCn4c(C)nc(-c5cccnc5OC(F)F)c4C3)cc2)n1` [Compound 82, 3-{7-[4-(5-chloro-3-methyl-1H-pyrazol-1-yl)phenyl]-3-methyl-5H,6H,7H,8H-imidazo[1,5-a]pyrazin-1-yl}-2-(difluoromethoxy)pyridine], for which the IC50 is not above 1000 nM.

In the case of `Cc1nc(-c2cccnc2C(C)C)c2n1CCN(c1cnc(C#N)nc1)C2` [Compound 83, 5-{3-methyl-1-[2-(propan-2-yl)pyridin-3-yl]-5H,6H,7H,8H-imidazo[1,5-a]pyrazin-7-yl}pyrimidine-2-carbonitrile], the IC50 is more than 25000 nM.

`COc1nc(-c2cccnc2C(C)C)c2n1CCN(c1ccc(-c3nc(C(F)(F)F)cn3C)cc1)C2` [Compound 84, 3-(3-methoxy-7-{4-[1-methyl-4-(trifluoromethyl)-1H-imidazol-2-yl]phenyl}-5H,6H,7H,8H-imidazo[1,5-a]pyrazin-1-yl)-2-(propan-2-yl)pyridine]: the half-maximal inhibitory concentration (IC50) was not above 1000 nM.

With `Cc1nc(-c2cccnc2C(C)C)c2n1CCN(c1ccc(-c3nc(C(F)(F)F)cn3C)cc1)C2C` (stereo not shown) [Compound 85, 3-[3,8-dimethyl-7-{4-[1-methyl-4-(trifluoromethyl)-1H-imidazol-2-yl]phenyl}-5H,6H,7H,8H-imidazo[1,5-a]pyrazin-1-yl]-2-(propan-2-yl)pyridine], the IC50 is not above 1000 nM.

Turning to `Cc1nc(-c2cccnc2C(C)C)c2n1CCN(c1ccc(-c3nc(C(F)(F)F)cn3C)cn1)C2C` (stereo not shown) [Compound 86, 2-[3,8-dimethyl-1-[2-(propan-2-yl)pyridin-3-yl]-5H,6H,7H,8H-imidazo[1,5-a]pyrazin-7-yl]-5-[1-methyl-4-(trifluoromethyl)-1H-imidazol-2-yl]pyridine], the IC50 was not above 1000 nM.

Staying with this assay, now noted: Table 6, additional compounds; 30 min preincubation, Enzyme 0.025 nM, Substrate Ub-Rho 110 25 nM; read-out: IC50.
With `Cc1nc(-c2cccnc2C(C)C)c2n1CCCN(Cc1ccc(-c3nc(C(F)(F)F)cn3C)cc1)C2` [Compound C-2, 1-(2-isopropylpyridin-3-yl)-3-methyl-8-(4-(1-methyl-4-(trifluoromethyl)-1H-imidazol-2-yl)benzyl)-6,7,8,9-tetrahydro-5H-imidazo[1,5-a][1,4]diazepine], the IC50 fell in the range of 1000 to 10000 nM.

Consider `Cc1nc(-c2cccnc2C(C)C)c2n1CC(=O)N(c1ccc(-c3nc(C(F)(F)F)cn3C)cc1)C2` [Compound C-3, 1-(2-isopropylpyridin-3-yl)-3-methyl-7-(4-(1-methyl-4-(trifluoromethyl)-1H-imidazol-2-yl)phenyl)-7,8-dihydroimidazo[1,5-a]pyrazin-6(5H)-one], for which the IC50 is more than 25000 nM.

Take `Cc1nc(-c2ccccc2C(C)C)n2cc(N3CCC(c4nc(C(F)(F)F)cn4C)CC3)ccc12` [Compound C-4, 3-(2-isopropylphenyl)-1-methyl-6-(4-(1-methyl-4-(trifluoromethyl)-1H-imidazol-2-yl)piperidin-1-yl)imidazo[1,5-a]pyridine]: the IC50 is more than 25000 nM.

Regarding `Cc1nc(-c2cccnc2C(C)C)c2n1CCN(c1ccc(-c3nc(C(F)(F)F)cn3C)cc1)C2=O` [Compound C-5, 1-(2-isopropylpyridin-3-yl)-3-methyl-7-(4-(1-methyl-4-(trifluoromethyl)-1H-imidazol-2-yl)phenyl)-6,7-dihydroimidazo[1,5-a]pyrazin-8(5H)-one], the IC50 was more than 25000 nM.
